What was measured:
Test in all cases: Test G preemergence/postemergence greenhouse plant response rating 0 to 100
[1] = tested on: large crabgrass; type: in vivo, Digitaria sanguinalis; conditions: 0 to 100 scale
From the text: (§1) Seeds, rhizomes, or plant parts of alfalfa (Medicago ativa), annual bluegrass (Poa annua), bermudagrass (Cynodon dactylon), broadleaf signalgrass (Brachiaria plantaginea), common purslane (Portulaca oleracea), common ragweed (Ambrosia elatior), […] (Paspalum dilatatum), goosegrass (Eleusine indica), guineagrass (Panicum maximum), […] exaltata), johnsongrass (Sorghum halepense), large crabgrass (Digitaria sanguinalis), peanut (Arachis hypoagaea), pitted morningglory (Ipomoea lacunosa), purple nutsedge (Cyperus rotundus), sandbur (Cenchrus echinatus), smooth crabgrass (Digitaria ischaemum) and yellow nutsedge (Cyperus esculentus) were planted into greenhouse pots containing greenhouse planting medium. Each pot contained only one plant species. The test compound was dissolved in a non-phytotoxic solvent and applied preemergence and/or postemergence to the plants. Preemergence applications were made within one day of planting the seeds or plant parts. Postemergence applications were applied when the plants were in the two to four leaf stage (three to twenty cm). Test chemicals were dissolved in a non-phytotoxic solvent and applied preemergence and postemergence to the plants. Untreated control plants and treated plants were placed in the greenhouse and visually evaluated for injury at 13 to 21 days after herbicide application. […] A dash (-) response indicates no test result.

[2] = tested on: annual bluegrass; type: in vivo, Poa annua; conditions: 0 to 100 scale
From the text: as §1

[3] = tested on: peanut; type: in vivo, Arachis hypoagaea; conditions: 0 to 100 scale
From the text: as §1

[4] = tested on: yellow nutsedge; type: in vivo, Cyperus esculentus; conditions: Rate 125 g/ha, 0 to 100 scale
From the text: as §1

[5] = tested on: guineagrass; type: in vivo, Panicum maximum; conditions: 0 to 100 scale
From the text: as §1

[6] = tested on: goosegrass; type: in vivo, Eleusine indica; conditions: 0 to 100 scale
From the text: as §1

[7] = tested on: bermudagrass; type: in vivo, Cynodon dactylon; conditions: 0 to 100 scale
From the text: as §1

[8] = tested on: purple nutsedge; type: in vivo, Cyperus rotundus; conditions: Rate 125 g/ha, 0 to 100 scale
From the text: as §1

[9] = tested on: broadleaf signalgrass; type: in vivo, Brachiaria plantaginea; conditions: 0 to 100 scale
From the text: as §1

[10] = tested on: johnsongrass; type: in vivo, Sorghum halepense; conditions: 0 to 100 scale
From the text: as §1

[11] = tested on: pitted morningglory; type: in vivo, Ipomoea lacunosa; conditions: 0 to 100 scale
From the text: as §1

[12] = tested on: itchgrass; type: in vivo, Rottboellia exaltata; conditions: 0 to 100 scale
From the text: as §1

[13] = tested on: dallisgrass; type: in vivo, Paspalum dilatatum; conditions: 0 to 100 scale
From the text: as §1

[14] = tested on: sandbur; type: in vivo, Cenchrus echinatus; conditions: 0 to 100 scale
From the text: as §1

[15] = tested on: common ragweed; type: in vivo, Ambrosia elatior; conditions: 0 to 100 scale
From the text: as §1

[16] = tested on: alfalfa; type: in vivo, Medicago ativa; conditions: 0 to 100 scale
From the text: as §1

[17] = tested on: common purslane; type: in vivo, Portulaca oleracea; conditions: 0 to 100 scale
From the text: as §1

For CC(C)COc1cc(-c2nn3c(c2Cl)CCCC3)c(F)cc1Cl [Compound 30], which “Plant response rating, Large Crabgrass” value ([1]; POSTEMERGENCE, Rate 125 g/ha) is on record?
The value was 0.

And the “Plant response rating, Large Crabgrass” value ([1]; POSTEMERGENCE, Rate 250 g/ha)?
Its value is 0.

And the “Plant response rating, Large Crabgrass” value ([1]; PREEMERGENCE, Rate 125 g/ha)?
The value was 0.

And the “Plant response rating, Large Crabgrass” value ([1]; PREEMERGENCE, Rate 250 g/ha)?
The value was 70.

And the “Plant response rating, Ann Bluegrass” value ([2]; POSTEMERGENCE, Rate 125 g/ha)?
Its value is 0.

And the “Plant response rating, Ann Bluegrass” value ([2]; POSTEMERGENCE, Rate 250 g/ha)?
Its value is 0.

What about the “Plant response rating, Ann Bluegrass” value ([2]; PREEMERGENCE, Rate 125 g/ha) of the same compound?
Its value is 0.

And the “Plant response rating, Ann Bluegrass” value ([2]; PREEMERGENCE, Rate 250 g/ha)?
Its value is 0.

And the “Plant response rating, Peanuts” value ([3]; POSTEMERGENCE, Rate 125 g/ha)?
The value was 0.

What about the “Plant response rating, Peanuts” value ([3]; POSTEMERGENCE, Rate 250 g/ha) of the same compound?
The value was 0.

What about the “Plant response rating, Peanuts” value ([3]; PREEMERGENCE, Rate 125 g/ha) of the same compound?
The value was 0.

And the “Plant response rating, Peanuts” value ([3]; PREEMERGENCE, Rate 250 g/ha)?
The value was 0.

What about the “Plant response rating, Yellow Nutsedge” value ([4]; POSTEMERGENCE) of the same compound?
The value was 0.

And the “Plant response rating, Yellow Nutsedge” value ([4]; PREEMERGENCE)?
The value was 0.

What about the “Plant response rating, Guineagrass” value ([5]; POSTEMERGENCE, Rate 125 g/ha) of the same compound?
The value was 0.

And the “Plant response rating, Guineagrass” value ([5]; POSTEMERGENCE, Rate 250 g/ha)?
The value was 0.

What about the “Plant response rating, Guineagrass” value ([5]; PREEMERGENCE, Rate 125 g/ha) of the same compound?
Its value is 0.

And the “Plant response rating, Guineagrass” value ([5]; PREEMERGENCE, Rate 250 g/ha)?
The value was 0.

What about the “Plant response rating, Goosegrass” value ([6]; POSTEMERGENCE, Rate 125 g/ha) of the same compound?
Its value is 0.

What about the “Plant response rating, Goosegrass” value ([6]; POSTEMERGENCE, Rate 250 g/ha) of the same compound?
The value was 0.

What about the “Plant response rating, Goosegrass” value ([6]; PREEMERGENCE, Rate 125 g/ha) of the same compound?
Its value is 0.

What about the “Plant response rating, Goosegrass” value ([6]; PREEMERGENCE, Rate 250 g/ha) of the same compound?
Its value is 30.

And the “Plant response rating, Bermudagrass” value ([7]; POSTEMERGENCE, Rate 125 g/ha)?
Its value is 0.

And the “Plant response rating, Bermudagrass” value ([7]; POSTEMERGENCE, Rate 250 g/ha)?
Its value is 0.

What about the “Plant response rating, Bermudagrass” value ([7]; PREEMERGENCE, Rate 125 g/ha) of the same compound?
Its value is 0.

What about the “Plant response rating, Bermudagrass” value ([7]; PREEMERGENCE, Rate 250 g/ha) of the same compound?
Its value is 0.

And the “Plant response rating, Purple Nutsedge” value ([8]; POSTEMERGENCE)?
The value was 0.

What about the “Plant response rating, Purple Nutsedge” value ([8]; PREEMERGENCE) of the same compound?
The value was 0.

What about the “Plant response rating, Brdlf Sgnlgrass” value ([9]; POSTEMERGENCE, Rate 125 g/ha) of the same compound?
The value was 0.

And the “Plant response rating, Brdlf Sgnlgrass” value ([9]; POSTEMERGENCE, Rate 250 g/ha)?
The value was 0.

What about the “Plant response rating, Brdlf Sgnlgrass” value ([9]; PREEMERGENCE, Rate 125 g/ha) of the same compound?
Its value is 0.

What about the “Plant response rating, Brdlf Sgnlgrass” value ([9]; PREEMERGENCE, Rate 250 g/ha) of the same compound?
The value was 0.

What about the “Plant response rating, Johnsongrass” value ([10]; POSTEMERGENCE, Rate 125 g/ha) of the same compound?
The value was 0.

And the “Plant response rating, Johnsongrass” value ([10]; POSTEMERGENCE, Rate 250 g/ha)?
The value was 0.

And the “Plant response rating, Johnsongrass” value ([10]; PREEMERGENCE, Rate 125 g/ha)?
The value was 0.

What about the “Plant response rating, Johnsongrass” value ([10]; PREEMERGENCE, Rate 250 g/ha) of the same compound?
Its value is 0.

And the “Plant response rating, Pit Morninglory” value ([11]; POSTEMERGENCE, Rate 125 g/ha)?
Its value is 0.

What about the “Plant response rating, Pit Morninglory” value ([11]; POSTEMERGENCE, Rate 250 g/ha) of the same compound?
Its value is 20.

What about the “Plant response rating, Pit Morninglory” value ([11]; PREEMERGENCE, Rate 125 g/ha) of the same compound?
The value was 0.

What about the “Plant response rating, Pit Morninglory” value ([11]; PREEMERGENCE, Rate 250 g/ha) of the same compound?
The value was 0.

What about the “Plant response rating, Itchgrass” value ([12]; POSTEMERGENCE, Rate 125 g/ha) of the same compound?
The value was 0.

What about the “Plant response rating, Itchgrass” value ([12]; POSTEMERGENCE, Rate 250 g/ha) of the same compound?
The value was 0.

And the “Plant response rating, Itchgrass” value ([12]; PREEMERGENCE, Rate 125 g/ha)?
The value was 0.

And the “Plant response rating, Itchgrass” value ([12]; PREEMERGENCE, Rate 250 g/ha)?
Its value is 0.

What about the “Plant response rating, Dallisgrass” value ([13]; POSTEMERGENCE, Rate 125 g/ha) of the same compound?
The value was 0.

What about the “Plant response rating, Dallisgrass” value ([13]; POSTEMERGENCE, Rate 250 g/ha) of the same compound?
Its value is 0.

What about the “Plant response rating, Dallisgrass” value ([13]; PREEMERGENCE, Rate 125 g/ha) of the same compound?
The value was 0.

What about the “Plant response rating, Dallisgrass” value ([13]; PREEMERGENCE, Rate 250 g/ha) of the same compound?
The value was 0.

And the “Plant response rating, S. Sandbur” value ([14]; POSTEMERGENCE, Rate 125 g/ha)?
Its value is 0.

And the “Plant response rating, S. Sandbur” value ([14]; POSTEMERGENCE, Rate 250 g/ha)?
Its value is 0.

And the “Plant response rating, S. Sandbur” value ([14]; PREEMERGENCE, Rate 125 g/ha)?
The value was 0.

And the “Plant response rating, S. Sandbur” value ([14]; PREEMERGENCE, Rate 250 g/ha)?
The value was 0.

What about the “Plant response rating, Cmn Ragweed” value ([15]; POSTEMERGENCE, Rate 125 g/ha) of the same compound?
The value was 40.

And the “Plant response rating, Cmn Ragweed” value ([15]; POSTEMERGENCE, Rate 250 g/ha)?
The value was 0.

And the “Plant response rating, Cmn Ragweed” value ([15]; PREEMERGENCE, Rate 125 g/ha)?
The value was 0.

And the “Plant response rating, Cmn Ragweed” value ([15]; PREEMERGENCE, Rate 250 g/ha)?
Its value is 0.

What about the “Plant response rating, Alfalfa Var.” value ([16]; POSTEMERGENCE, Rate 125 g/ha) of the same compound?
The value was 0.

What about the “Plant response rating, Alfalfa Var.” value ([16]; POSTEMERGENCE, Rate 250 g/ha) of the same compound?
Its value is 0.

And the “Plant response rating, Alfalfa Var.” value ([16]; PREEMERGENCE, Rate 125 g/ha)?
Its value is 0.

And the “Plant response rating, Alfalfa Var.” value ([16]; PREEMERGENCE, Rate 250 g/ha)?
The value was 0.

What about the “Plant response rating, Cmn Purslane” value ([17]; POSTEMERGENCE, Rate 125 g/ha) of the same compound?
Its value is 70.

What about the “Plant response rating, Cmn Purslane” value ([17]; POSTEMERGENCE, Rate 250 g/ha) of the same compound?
Its value is 60.

What about the “Plant response rating, Cmn Purslane” value ([17]; PREEMERGENCE, Rate 125 g/ha) of the same compound?
Its value is 0.

And the “Plant response rating, Cmn Purslane” value ([17]; PREEMERGENCE, Rate 250 g/ha)?
Its value is 0.
